From PMC11124413, “Synthesis, Antibacterial Effects, and Toxicity of Licochalcone C” (Pharmaceuticals, 2024)
pIC50: −log10 of the molar value. Converted amounts (≈) assume the structure as drawn. Read-outs that look alike come from different tables or passages of the source. Positions of bridges follow the written chain, without caps; N, C: chain ends. Non-standard residues stand in square brackets, D forms with d. No end group written: not given here. Abu = CC[C@H](N)C(=O)O; Dhb = C/C=C(\N)C(=O)O; Dha = C=C(N)C(=O)O

What was measured:
[1] = test system: S. epidermidis (ATCC 14990); assay: MIC, broth microdilution with resazurin; assay type: cell-based; details: ATCC14990; Staphylococcus epidermidis; mean of triplicates
MSSA biofilm = assay: Antibiofilm assay (biofilm formation); assay type: cell-based, S. aureus; details: for MBIC50 (minimum biofilm inhibitory concentration): MSSA biofilm formation
H. pylori (ATCC 43526) = assay: MIC, broth microdilution with resazurin; assay type: cell-based; details: Helicobacter pylori, mean of triplicates
[2] = test system: K. pneumoniae (ATCC 23883); assay: MIC, broth microdilution with resazurin; assay type: cell-based; details: Klebsiella pneumoniae, mean of triplicates
[3] = test system: S. pneumoniae (ATCC 6305); assay: MIC, broth microdilution with resazurin; assay type: cell-based; details: ATCC6305; Streptococcus pneumoniae; mean of triplicates
[4] = test system: Escherichia coli (ATCC 25922); assay: MIC, broth microdilution with resazurin; assay type: cell-based
E. faecalis (ATCC 1299) = assay: MIC, broth microdilution with resazurin; assay type: cell-based; details: ATCC1299; Enterococcus faecalis; mean of triplicates
MSSA (ATCC 6538) = assay: MIC, broth microdilution with resazurin; assay type: cell-based; details: Staphylococcus aureus (MSSA), mean of triplicates
[5] = test system: P. aeruginosa (ATCC 27853); assay: MIC, broth microdilution with resazurin; assay type: cell-based; details: Pseudomonas aeruginosa, mean of triplicates
MSSA planktonic cells = assay: Checkerboard assay; assay type: cell-based, S. aureus; details: for MIC: Staphylococcus aureus, drug alone; for MIC / MIC Combined: checkerboard; for MIC Combined: in combination LCC + TC
Method: (§1) The combinations of LCC with tetracycline and vancomycin were evaluated against MSSA and MRSA, respectively, using a microdilution broth checkerboard assay, according to White and collaborators, adapted with the standard procedure established by the CLSI [51, 54]. The fractional inhibitory concentration (FIC) of the combination between LCC and tetracycline or vancomycin was determined using Mueller–Hinton broth culture medium into 96-well plates, with a final inoculum suspension of 5.0 × 10^5 CFU/mL, incubated at 37 °C for 24 h. After incubation, an aqueous resazurin solution (0.02%) was added to the wells and the FIC values (ratio between the MIC of the drug in combination and the MIC of the drug alone) were determined for each drug (Equations (1) and (2)). The fractional inhibitory concentration index (FICI) was calculated using Equation (3). (1) FICLCC=MIC of drug A in combination/MIC of drug A alone (2) FICD=MIC of drug B in combination/MIC of drug B alone FIC Index (FICI) = FICLCC + FICD(3)
(§2) The combination was classified as synergistic (FICI ≤ 0.5), indifferent (0.5 < FICI < 4), and antagonistic (FICI ≥ 4). The assays were performed in triplicate in independent experiments.

KYSE 30 (esophageal) = test system: KYSE 30 (esophageal); set-up: method as in PMID 32009586; details: read-out: IC50 (proliferation); cited from earlier work
KYSE 450 (esophageal) = test system: KYSE 450 (esophageal); set-up: method as in PMID 32009586; details: read-out: IC50 (proliferation); cited from earlier work
M. avium (ATCC 25291) = assay: Antimycobacterial MIC, resazurin microtiter assay; assay type: cell-based; details: ATCC25291; Mycobacterium avium; mean of triplicates
[6] = test system: M. tuberculosis (ATCC 27294); assay: Antimycobacterial MIC, resazurin microtiter assay; assay type: cell-based; details: ATCC27294; Mycobacterium tuberculosis; mean of triplicates
NADH-CoQ reductase = biological target: NADH-CoQ reductase; set-up: method as in PMID 9621457; details: cited from earlier work
[7] = test system: Staphylococcus aureus (ATCC 29213) membrane; assay: Membrane disruption assay, fluorescence microscopy with SYTO9 and propidium iodide; details: S. aureus; LCC at MIC 12.5 µg/mL, 15 min; nisin positive control
Method: Two fluorescent dyes propidium iodide (PI) and SYTO9 were added, which stain cells with disrupted membranes (in pink) and whole membranes (in blue).
The assay was performed using Staphylococcus aureus (ATCC 29213), an MSSA strain. Bacterial cells were cultivated in solid TSA broth (tryptone soya) at 36 °C and stirred at 200 rpm. […] Cells were stained with the Live/Dead BacLight Kit (Thermo-Scientific® L7012, Carlsbad, CA, USA), which is composed of two nucleic acid dyes: SYTO9, which stains all cells, and propidium iodide, which penetrates cells with damaged membranes [60]. The stained cells were immobilized on agarose-covered slides as described by Martins [61]. Untreated S. aureus cells with intact membranes were used as negative controls, and S. aureus cells exposed to nisin (Sigma-Aldrich® N5764, St. Louis, MO, USA) were used as positive controls for membrane damage [62]. Microscopic analyses were carried out using an Olympus BX-61 microscope, equipped with a monochromatic OrcaFlash-2.8 camera (Hamamatsu, Japan), and the software CellSens Dimension Version 11 (Olympus).

[8] = test system: Galleria mellonella larvae; assay: Systemic toxicity in Galleria mellonella larvae; assay type: in vivo
Method: The systemic toxicity assay was performed to evaluate the acute toxic effects of LCC, following the procedures described by Megaw [63]. For the experiment, 10 healthy larvae from G. mellonella were randomly selected for each concentration test, with a weight range between 0.2 g and 0.3 g and without melanization aspects. The larvae were chilled on ice for 20 min and had their prolegs cleaned with 70% ethanol. […] Five microliters of the solution were injected into the hemocoel of each larva through the last left proleg using a 25 µL Hamilton syringe. After the administration, the larvae were incubated at 37 °C and their survival was monitored in selected intervals over 72 h. The larvae unable to move when touched and showing elevated levels of melanization were counted as dead. Experiments were performed in triplicate.

KYSE 70 (esophageal) = test system: KYSE 70 (esophageal); set-up: method as in PMID 32009586; details: read-out: IC50 (proliferation); cited from earlier work
MCF7 (breast) = test system: MCF7 (breast); set-up: method as in PMID 26397392; details: at 45 µg/mL; cited from earlier work
HepG2 (liver) = test system: HepG2 (liver); set-up: method as in PMID 32578448; details: read-out: IC50 (proliferation); cited from earlier work
MRSA (ATCC BAA44) = assay: MIC, broth microdilution with resazurin; assay type: cell-based; details: Staphylococcus aureus (MRSA), mean of triplicates
Vero cells = test system: Vero cells; set-up: method as in PMID 31749783; details: cited from earlier work
HCT116 (colorectal) = test system: HCT116 (colorectal); set-up: method as in PMID 38148556; details: read-out: IC50 (proliferation); cited from earlier work
S. mutans (ATCC 25175) = assay: MIC, broth microdilution with resazurin; assay type: cell-based; details: ATCC25175; Streptococcus mutans; mean of triplicates
[9] = test system: S. sanguinis (ATCC 10556); assay: MIC, broth microdilution with resazurin; assay type: cell-based; details: ATCC10556; Streptococcus sanguinis; mean of triplicates
M. kansasii (ATCC 12478) = assay: Antimycobacterial MIC, resazurin microtiter assay; assay type: cell-based; details: ATCC12478; Mycobacterium kansasii; mean of triplicates
[10] = biological target: NADH-cytochrome c reductase; set-up: method as in PMID 9621457; details: cited from earlier work
S. sobrinus (ATCC 33478) = assay: MIC, broth microdilution with resazurin; assay type: cell-based; details: ATCC33478; Streptococcus sobrinus; mean of triplicates
KYSE 410 (esophageal) = test system: KYSE 410 (esophageal); set-up: method as in PMID 32009586; details: read-out: IC50 (proliferation); cited from earlier work
MRSA biofilm = assay: Antibiofilm assay (biofilm formation); assay type: cell-based, S. aureus
HN22 (oral) = test system: HN22 (oral); set-up: method as in PMID 30129052; details: read-out: IC50 (proliferation); cited from earlier work
NADH-FMN oxidoreductase = biological target: NADH-FMN oxidoreductase; set-up: method as in PMID 9621457; details: cited from earlier work
HSC4 (oral) = test system: HSC4 (oral); set-up: method as in PMID 30129052; details: read-out: IC50 (proliferation); cited from earlier work
T24 (bladder) = test system: T24 (bladder); set-up: method as in PMID 26397392; details: at 45 µg/mL; cited from earlier work
KYSE 510 (esophageal) = test system: KYSE 510 (esophageal); set-up: method as in PMID 32009586; details: read-out: IC50 (proliferation); cited from earlier work
Gram-positive bacteria = assay: MIC, panel of Gram-positive bacteria; assay type: cell-based; details: all Gram-positive bacteria tested
[11] = test system: E. coli respiratory chain; set-up: method as in PMID 9621457; details: cited from earlier work
MRSA planktonic cells = assay: Checkerboard assay; assay type: cell-based, S. aureus
Method: as §1, §2

NADH-oxidase = biological target: NADH-oxidase; set-up: method as in PMID 9621457; details: cited from earlier work
A549 (lung) = test system: A549 (lung); set-up: method as in PMID 26397392; details: at 45 µg/mL; cited from earlier work
[12] = ATCC25922, mean of triplicates, read-out: MIC

## CN(C)[C@@H]1C(O)=C(C(N)=O)C(=O)[C@@]2(O)C(O)=C3C(=O)c4c(O)cccc4[C@@](C)(O)[C@H]3C[C@@H]12 [Tetracycline, tetracycline, reference compound]
[1]
  MIC: > 5.9 µg/mL
MSSA biofilm
  MBIC50 (minimum biofilm inhibitory concentration): 0.046 µg/mL
H. pylori (ATCC 43526); ATCC43526, read-out: MIC
  MIC: 1.47 µg/mL (≈ 3.31 µM)
[2]; ATCC23883, read-out: MIC
  MIC: 1.47 µg/mL (≈ 3.31 µM)
[3]
  MIC: 0.4 µg/mL (≈ 0.9 µM)
[4]; [12]
  MIC: 0.73 µg/mL (≈ 1.64 µM)
E. faecalis (ATCC 1299)
  MIC: 3.3 µg/mL (≈ 7.43 µM)
MSSA (ATCC 6538); read-out: MIC
  MIC: 0.09 µg/mL (≈ 0.203 µM)
[5]; ATCC27853, read-out: MIC
  MIC: 5.9 µg/mL (≈ 13.3 µM)
MSSA planktonic cells
  MIC: 0.09 µg/mL
  MIC Combined: 0.18 µg/mL
MSSA planktonic cells; combination LCC + TC
  FICD (fractional inhibitory concentration for the associated drug): 2.0

## COc1c(/C=C/C(=O)c2ccc(O)cc2)ccc(O)c1CC=C(C)C [LCC, licochalcone C]
KYSE 30 (esophageal)
  pIC50: 4.55
KYSE 450 (esophageal)
  pIC50: 4.55
M. avium (ATCC 25291)
  MIC: 62.5 µg/mL (≈ 185 µM)
[1]
  MIC: 6.2 µg/mL (≈ 18.3 µM)
[6]
  MIC: 31.2 µg/mL (≈ 92.2 µM)
MSSA biofilm
  inhibition of biofilm formation: 75%
  MBIC50 (minimum biofilm inhibitory concentration): 6.25 µg/mL
NADH-CoQ reductase
  pIC50: < 4.00
[7]
  percentage of cells with permeabilized membrane (stained with both fluorophores): 75%
H. pylori (ATCC 43526); ATCC43526, read-out: MIC
  MIC: 25 µg/mL (≈ 73.9 µM)
H. pylori (ATCC 43526)
  MIC: 25 µg/mL (≈ 73.9 µM)
[8]; 100 µg/mL after 80 h treatment
  lethality to larvae: not lethal
[8]; LCC at 12.5, 25, 50, and 100 µg/mL, over a period of 72 h
  larvae survival: 100%
[2]; ATCC23883, read-out: MIC
  MIC: > 400 µg/mL
[2]
  MIC: >400 µg/mL
KYSE 70 (esophageal)
  pIC50: 4.44
MCF7 (breast)
  proliferation inhibition: 47%
HepG2 (liver)
  pIC50: 4.29
MRSA (ATCC BAA44)
  MIC: 12.5 µg/mL (≈ 36.9 µM)
MRSA (ATCC BAA44); read-out: MIC
  MIC: 12.5 µg/mL (≈ 36.9 µM)
Vero cells
  IC50: 27.7 µg/mL (≈ 81.9 µM)
HCT116 (colorectal)
  pIC50: 4.78
[3]
  MIC: 50 µg/mL (≈ 148 µM)
S. mutans (ATCC 25175)
  MIC: 12.5 µg/mL (≈ 36.9 µM)
[9]
  MIC: 6.2 µg/mL (≈ 18.3 µM)
[4]; [12]
  MIC: > 400 µg/mL
[4]; mean of triplicates
  MIC: >400 µg/mL
M. kansasii (ATCC 12478)
  MIC: 125 µg/mL (≈ 369 µM)
[10]
  pIC50: 4.53
S. sobrinus (ATCC 33478)
  MIC: 12.5 µg/mL (≈ 36.9 µM)
E. faecalis (ATCC 1299)
  MIC: 50 µg/mL (≈ 148 µM)
KYSE 410 (esophageal)
  pIC50: 4.72
MRSA biofilm; MRSA biofilm formation
  MBIC50 (minimum biofilm inhibitory concentration): 6.25 µg/mL
MRSA biofilm; MRSA, at MBIC50 (6.25 μg/mL)
  inhibition of biofilm formation: 87%
HN22 (oral)
  pIC50: 4.62
NADH-FMN oxidoreductase
  pIC50: < 4.00
HSC4 (oral)
  pIC50: 4.57
MSSA (ATCC 6538)
  MIC: 12.5 µg/mL (≈ 36.9 µM)
MSSA (ATCC 6538); read-out: MIC
  MIC: 12.5 µg/mL (≈ 36.9 µM)
T24 (bladder)
  proliferation inhibition: 68%
KYSE 510 (esophageal)
  pIC50: 4.59
Gram-positive bacteria
  MIC, range over Gram-positive bacteria: 6.2 to 50.0 µg/mL
[5]; ATCC27853, read-out: MIC
  MIC: > 400 µg/mL
[5]
  MIC: >400 µg/mL
[11]
  inhibition of respiratory chain: did not inhibit
MRSA planktonic cells; Staphylococcus aureus, checkerboard, drug alone, read-out: MIC Alone
  MIC: 12.5 µg/mL
MRSA planktonic cells; checkerboard, in combination LCC + VAN
  MIC Combined: 6.25 µg/mL
MRSA planktonic cells; combination LCC + VAN
  FICLCC (fractional inhibitory concentration for LCC): 0.5
MSSA planktonic cells
  MIC: 12.5 µg/mL
  MIC Combined: 3.12 µg/mL
MSSA planktonic cells; combination LCC + TC
  FICLCC (fractional inhibitory concentration for LCC): 0.25
NADH-oxidase
  pIC50: 5.52
A549 (lung)
  proliferation inhibition: 40%

## nisin (I[Dhb]AI[Dha]LC[Abu]PGCK[Abu]GALMGCNMK[Abu]A[Abu]CHCSIHV[Dha]K; thioether 8-11, 13-19, 23-26, 25-28, 3-7; UniProt P13068 24-57, looked up) [reference compound]
[7]
  percentage of cells with permeabilized membrane (stained with both fluorophores): 95%

## C[S+](C)[O-] [DMSO, dimethyl sulfoxide, reference compound]
[8]; 100% DMSO, after 40 h
  lethality to larvae: total lethality
